Counter-ions that a name gives are not always drawn. Like-named read-outs stand apart in the source and are kept apart here.
Assays:
5-HT4 receptor = target: T1, 5-HT4 receptor (Cavia porcellus, UniProt O70528); test: Test Example 3: Guinea pig 5-HT4 receptor binding assay, [3H]-GR113808, striatum membranes (Table 98)
T1 construct: striatum was isolated which was cryopreserved at −80° C. until use; from tissue; host or cells: guinea pig (Slc-Hartley) striatum membranes
Outline: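 Striatal membranes from Slc-Hartley guinea pigs were incubated with 0.1 nM [3H]-GR113808 and test compounds in 50 mM Hepes pH 7.4 at 37° C for 30 min; nonspecific binding was defined with 30 μM serotonin. Bound radioactivity was collected by filtration, and IC50 was derived from inhibition of specific binding.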

human 5-HT4b receptor = target: T2, human 5-HT4b receptor (Homo sapiens, UniProt Q13639); test: Test Example 4: Serotonin 4 (5-HT4) receptor agonist activity assay, cAMP HTRF in CHO cells (Table 100); format: cell-based; details: mean value; for Emax: CHO, 0.25 h, intrinsic activity, maximal activity of 5-HT defined as 100%, read-out: IA (%); for EC50: concentration showing 50% of IA
T2 construct: expressed in transfected cells; host or cells: CHO cells (G418 selection)
Description: The cAMP measurement test used herein was carried out by using CISBIO HTRF (trademark) cAMP Hirange kit according to the manufacturer's instructions attached therewith.
CHO cells expressing human 5-HT4b receptor were incubated in Medium 1 [DMEM/1% NEAA, 1% penicillin/streptomycin (P/S), 0.2 mg/mL GENETICIN (G418), 10% FBS] at 37° C. under 5% CO2 condition. Then, the cells were put into Medium 2 (DMEM/10000 cut FBS, G-418, P/S, NEAA) for 1 to 2 hours, and collected by treating with trypsin containing EDTA. The collected cells were suspended in Assay Buffer 1 [100 mM Hanks/HEPES buffer (pH 7.4)], the suspended cells were mixed with the testing compound on 384-well plates, and the cells were incubated at 31° C. for 15 minutes. To the cells were added cAMP-cryptate solution and cAMP-d2 solution, and they were incubated at room temperature for 1 hour. Then, time-resolved fluorescence was measured by En Vision (excitation wavelength: 330 nm, fluorescence wavelength: 620/665 nm).
An intrinsic activity of the compound [IA (%)] and a concentration showing 50% of IA [EC50 (nM)] were calculated from the obtained results. In particular, the intrinsic activity (IA) was calculated on the basis of the maximal activity of 5-HT (measured from 10^−11 M to 10^−7 M) defined as 100%.
In the following table, the compounds used in the test are shown in numbers which correspond to the Example numbers above where the preparations of the compounds are described.

[1] = Guinea pig 5-HT4 receptor binding assay, [3H]-GR113808, striatum membranes, mean value of each group, read-out: IC50

T2 sequence (Q13639 whole entry): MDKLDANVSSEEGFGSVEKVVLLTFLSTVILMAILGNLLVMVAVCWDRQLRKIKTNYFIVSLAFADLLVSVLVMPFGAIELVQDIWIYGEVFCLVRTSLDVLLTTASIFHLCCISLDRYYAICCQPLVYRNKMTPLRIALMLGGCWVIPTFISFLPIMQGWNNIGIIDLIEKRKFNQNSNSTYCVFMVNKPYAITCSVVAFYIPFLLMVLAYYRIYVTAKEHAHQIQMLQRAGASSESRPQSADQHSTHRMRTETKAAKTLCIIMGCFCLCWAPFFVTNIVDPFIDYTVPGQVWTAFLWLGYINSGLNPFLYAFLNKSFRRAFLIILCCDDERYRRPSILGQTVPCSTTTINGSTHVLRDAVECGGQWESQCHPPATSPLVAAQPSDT
T1 sequence (O70528 whole entry): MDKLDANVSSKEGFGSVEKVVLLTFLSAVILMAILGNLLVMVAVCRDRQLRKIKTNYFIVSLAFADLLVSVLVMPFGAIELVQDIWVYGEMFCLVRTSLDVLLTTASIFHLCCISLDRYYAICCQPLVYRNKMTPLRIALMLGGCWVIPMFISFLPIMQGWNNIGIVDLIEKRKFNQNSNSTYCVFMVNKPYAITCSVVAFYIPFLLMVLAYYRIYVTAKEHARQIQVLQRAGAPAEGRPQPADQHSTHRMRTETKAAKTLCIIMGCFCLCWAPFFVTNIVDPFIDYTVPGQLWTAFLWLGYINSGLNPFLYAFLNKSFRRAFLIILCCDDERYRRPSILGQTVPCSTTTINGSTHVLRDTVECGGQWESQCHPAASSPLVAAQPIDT

| SMILES | IC50 (5-HT4 receptor; [1]) [µM] | Emax (human 5-HT4b receptor) [%] | EC50 (human 5-HT4b receptor) [µM] | IC50 (5-HT4 receptor) [µM] |
| --- | --- | --- | --- | --- |
| CCc1nn(-c2noc(C3CCN(C4CCOCC4)CC3)n2)c2c(F)c(F)ccc12 [Example 448, 3-ethyl-6,7-difluoro-1-{5-[1-(tetrahydro-2H-pyran-4-yl)piperidin-4-yl]-1,2,4-oxadiazol-3-yl}-1H-indazole trifluoroacetate] | < 0.02 | 57.5 | 0.0089 | – |
| CCc1nn(-c2noc(C3CCN(CC4CCOCC4)CC3)n2)c2c(F)c(F)ccc12 [Example 449, 3-ethyl-6,7-difluoro-1-{5-[1-(tetrahydro-2H-pyran-4-ylmethyl)piperidin-4-yl]-1,2,4-oxadiazol-3-yl}-1H-indazole trifluoroacetate] | < 0.02 | 76.4 | 0.0312 | – |
| CC(C)c1nn(-c2noc(C3CCN(C(C)C)CC3)n2)c2c(F)c(F)ccc12 [Example 450, 6,7-difluoro-3-(propan-2-yl)-1-{5-[1-(propan-2-yl)piperidin-4-yl]-1,2,4-oxadiazol-3-yl}-1H-indazole trifluoroacetate] | < 0.02 | 87.7 | 0.0158 | – |
| CC(C)c1nn(-c2noc(C3CCN(C4CCC4)CC3)n2)c2c(F)c(F)ccc12 [Example 451, 1-[5-(1-cyclobutylpiperidin-4-yl)-1,2,4-oxadiazol-3-yl]-6,7-difluoro-3-(propan-2-yl)-1H-indazole-trifluoroacetate] | < 0.02 | 83.1 | 0.0138 | – |
| CC(C)c1nn(-c2noc(C3CCN(C4CCC4)C3)n2)c2c(F)cccc12 (stereo not drawn) [Example 455, 1-[5-(1-cyclobutylpyrrolidin-3-yl)-1,2,4-oxadiazol-3-yl]-7-fluoro-3-(propan-2-yl)-1H-indazole] | < 0.02 | 99 | 0.0281 | – |
| CC(=O)N1CCC(N2CCC(O)(c3nc(-n4nc(C(C)C)c5cccc(F)c54)no3)CC2)CC1 [Example 457, 1-(4-{3-[7-fluoro-3-(propan-2-yl)-1H-indazol-1-yl]-1,2,4-oxadiazol-5-yl}-4-hydroxy-1,4′-bipiperidin-1′-yl)ethanone] | – | 72.2 | 0.0127 | 0.0853 |
| CC(=O)N1CCC(N2CCC(c3nc(-n4nc(C(C)C)c5ccccc54)no3)CC2)CC1 [Example 458, 1-(4-{3-[3-(propan-2-yl)-1H-indazol-1-yl]-1,2,4-oxadiazol-5-yl}-1,4′-bipiperidin-1′-yl)ethanone trifluoroacetate] | 0.066 | 85.4 | 0.0027 | – |
| CCc1nn(-c2noc(C3CCN(C4CCN(C(=O)OC)CC4)CC3)n2)c2c(F)c(F)ccc12 [Example 459, methyl 4-[3-(3-ethyl-6,7-difluoro-1H-indazol-1-yl)-1,2,4-oxadiazol-5-yl]-1,4′-bipiperidine-1′-carboxylate trifluoroacetate] | < 0.02 | 68.2 | 0.0076 | – |
| CCc1nn(-c2noc(C3CCN(C4CCN(C(C)=O)CC4)CC3)n2)c2c(F)c(F)ccc12 [Example 460, 1-{4-[3-(3-ethyl-6,7-difluoro-1H-indazol-1-yl)-1,2,4-oxadiazol-5-yl]-1,4′-bipiperidin-1′-yl}ethanone trifluoroacetate] | < 0.02 | 78.6 | 0.0053 | – |
| CCc1nn(-c2noc(C3CCN(C4CCN(C(=O)COC)CC4)CC3)n2)c2c(F)c(F)ccc12 [Example 461, 1-{4-[3-(3-ethyl-6,7-difluoro-1H-indazol-1-yl)-1,2,4-oxadiazol-5-yl]-1,4′-bipiperidin-1′-yl}-2-methoxyethanone trifluoroacetate] | < 0.02 | 65.5 | 0.0044 | – |
| COC(=O)N1CCC(N2CCC(c3nc(-n4nc(C(C)C)c5ccc(F)c(F)c54)no3)CC2)CC1 [Example 463, methyl 4-{3-[6,7-difluoro-3-(propan-2-yl)-1H-indazol-1-yl]-1,2,4-oxadiazol-5-yl}-1,4′-bipiperidine 1′-carboxylate trifluoroacetate] | < 0.02 | 64.4 | 0.0083 | – |
| CC(=O)N1CCC(N2CCC(c3nc(-n4nc(C(C)C)c5ccc(F)c(F)c54)no3)CC2)CC1 [Example 464, 1-(4-{3-[6,7-difluoro-3-(propan-2-yl)-1H-indazol-1-yl]-1,2,4-oxadiazol-5-yl}-1,4′-bipiperidin-1′-yl}ethanone trifluoroacetate] | < 0.02 | 70 | 0.0312 | – |
| CC(=O)N1CC(CN2CCC(c3nc(-n4nc(C(C)C)c5ccccc54)no3)CC2)C1 [Example 467, 1-{3-[(4-{3-[3-(propan-2-yl)-1H-indazol-1-yl]-1,2,4-oxadiazol-5-yl}piperidin-1-yl)methyl]azetidin-1-yl}ethanone trifluoroacetate] | 0.0811 | 72.5 | 0.0069 | – |
| CCc1nn(-c2noc(C3CCN(CC4CN(C(C)=O)C4)CC3)n2)c2c(F)c(F)ccc12 [Example 468, 1-[3-({4-[3-(3-ethyl-6,7-difluoro-1H-indazol-1-yl)-1,2,4-oxadiazol-5-yl]piperidin-1-yl}methyl)azetidin-1-yl]ethanone trifluoroacetate] | < 0.02 | 69.8 | 0.0224 | – |
| CCc1nn(-c2noc(C3CCN(CC4CN(C(=O)COC)C4)CC3)n2)c2c(F)c(F)ccc12 [Example 469, 1-[3-({4-[3-(3-ethyl-6,7-difluoro-1H-indazol-1-yl)-1,2,4-oxadiazol-5-yl]piperidin-1-yl}methyl)azetidin-1-yl]-2-methoxyethanone trifluoroacetate] | 0.0204 | 68.8 | 0.0053 | – |
| CCc1nn(-c2noc(C3CCN(CC4CN(C(=O)OC)C4)CC3)n2)c2c(F)c(F)ccc12 [Example 470, methyl 3-({4-[3-(3-ethyl-6,7-difluoro-1H-indazol-1-yl)-1,2,4-oxadiazol-5-yl]piperidin-1-yl}methyl)azetidine-1-carboxylate trifluoroacetate] | 0.03 | 70.4 | 0.0134 | – |
| CC(=O)N1CC(CN2CCC(c3nc(-n4nc(C(C)C)c5ccc(F)c(F)c54)no3)CC2)C1 [Example 472, 1-{3-[(4-{3-[6,7-difluoro-3-(propan-2-yl)-1H-indazol-1-yl]-1,2,4-oxadiazol-5-yl}piperidin-1-yl)methyl]azetidin-1-yl}ethanone trifluoroacetate] | 0.0297 | 54.3 | 0.0472 | – |
| COCC(=O)N1CC(CN2CCC(c3nc(-n4nc(C(C)C)c5ccc(F)c(F)c54)no3)CC2)C1 [Example 473, 1-{3-[(4-{3-[6,7-difluoro-3-(propan-2-yl)-1H-indazol-1-yl]-1,2,4-oxadiazol-5-yl}piperidin-1-yl)methyl]azetidin-1-yl}-2-methoxyethanone trifluoroacetate] | 0.0238 | 58.5 | 0.0231 | – |
| COC(=O)N1CC(CN2CCC(c3nc(-n4nc(C(C)C)c5ccc(F)c(F)c54)no3)CC2)C1 [Example 474, methyl 3-[(4-{3-[6,7-difluoro-3-(propan-2-yl)-1H-indazol-1-yl]-1,2,4-oxadiazol-5-yl}piperidin-1-yl)methyl]azetidine-1-carboxylate trifluoroacetate] | 0.0202 | 89.4 | 0.0344 | – |
| CC(=O)N1CCC(CN2CCC(c3nc(-n4nc(C(C)C)c5ccccc54)no3)CC2)CC1 [Example 475, 1-{4-[(4-{3-[3-(propan-2-yl)-1H-indazol-1-yl]-1,2,4-oxadiazol-5-yl}piperidin-1-yl)methyl]piperidin-1-yl}ethanone trifluoroacetate] | 0.0679 | 61 | 0.0136 | – |
| CCc1nn(-c2noc(C3CCN(CC4CCN(C(=O)COC)CC4)CC3)n2)c2c(F)c(F)ccc12 [Example 477, 1-[4-({4-[3-(3-ethyl-6,7-difluoro-1H-indazol-1-yl)-1,2,4-oxadiazol-5-yl]piperidin-1-yl}methyl)piperidin-1-yl]-2-methoxyethanone trifluoroacetate] | < 0.02 | 65.5 | 0.0114 | – |
| CCc1nn(-c2noc(C3CCN(CC4CCN(C(C)=O)CC4)CC3)n2)c2c(F)c(F)ccc12 [Example 478, 1-[4-({4-[3-(3-ethyl-6,7-difluoro-1H-indazol-1-yl)-1,2,4-oxadiazol-5-yl]piperidin-1-yl}methyl)piperidin-1-yl]ethanone trifluoroacetate] | < 0.02 | 68.7 | 0.0324 | – |
